Results from patent US20040116480A1, “Oxime ether compound and agricultural or horticultural bactericide” (priority 2001, published 2004).

These molecules were tested on kidney bean gray mold fungus (Botrytis cinerea) (assay: Test on kidney bean gray mold control, dipped flowers on detached leaves). Details: 168 h, 50 ppm active ingredient, kidney bean flowers (Nagauzura) dipped, then spore solution sprayed, 20° C., 7 days, lesion diameter, read-out: control efficacy.
Format: in vivo
Procedure: The following test examples show the efficacy of the compounds of the present invention as active ingredients of various agents for controlling plant diseases. The control efficacy was determined by visual observation of the infested states of test plants, that is, degrees of legions and growth of colonies on leaves and stalks, when they were examined, in comparison with those of control plants.
Test on Kidney Bean Gray Mold Control
Flowers of kidney bean (variety: Nagauzura) grown in a flat vessel for culturing seedlings were cut, and dipped into a solution of an emulsifiable concentrate prepared for a compound of the present invention, diluted to a concentration of 50 ppm based on the active ingredient. After the dipping, the flowers were dried at room temperature. Then a spore solution of kidney bean gray mold fungus (Botrytis cinerea) was sprayed onto the flowers. The treated flowers were placed on leaves detached from healthy kidney bean plants, placed in a temperature-controlled room at 20° C. with high humidity and repeated lighting of 12-hour intervals, and incubated for 7 days. Diameters of the legions on the leaves were measured and compared with those of the control healthy leaves to determine the control efficacy.

Compound	pest or weed control at 50 ppm [%]
COc1ccnc(OC)c1CO/N=C(\C)c1cc(C)cc(C)n1 [II-14, 1-(4,6-dimethyl-2-pyridinyl)ethanone O-[(2,4-dimethoxy-3-pyridinyl)methyl]oxime]	≥ 75
COc1ncnc(OC)c1CO/N=C/c1cc(C#N)cc(C)n1 [II-29, 4-cyano-6-methyl-2-pyridinecarboxyaldehyde O-[(4,6-dimethoxy-5-pyrimidinyl)methyl]oxime]	≥ 75
COc1ncnc(OC)c1CO/N=C/c1cc(C(F)(F)F)cc(C)n1 [II-36, 6-methyl-4-trifluoromethyl-2-pyridinecarboxyaldehyde O-[(4,6-dimethoxy-5-pyrimidinyl)methyl]oxime]	≥ 75
COc1ncnc(OC)c1CO/N=C/c1cc(Cl)cc(C)n1 [II-20, 4-chloro-6-methyl-2-pyridinecarboxyaldehyde O-[(4,6-dimethoxy-5-pyrimidinyl)methyl]oxime]	≥ 75
COc1ccnc(OC)c1CO/N=C/c1cc(C#N)cc(C)n1 [II-27, 4-cyano-6-methyl-2-pyridinecarboxyaldehyde O-[(2-,4-dimethoxy-3-pyridinyl)methyl]oxime]	≥ 75
COc1ncnc(OC)c1CO/N=C(\C)c1cc(C)cc(C)n1 [II-17, 1-(4,6-dimethyl-2-pyridinyl)ethanone O-[(4,6-dimethoxy-5-pyrimidinyl)methyl]oxime]	≥ 75
COc1nccc(C)c1CO/N=C/c1cc(C#N)cc(C)n1 [II-28, 4-cyano-6-methyl-2-pyridinecarboxyaldehyde O-[(2-methoxy-4-methyl-3-pyridinyl)methyl]oxime]	≥ 75
COc1nccc(C)c1CO/N=C/c1cc(C)cc(C)n1 [II-3, 4,6-dimethyl-2-pyridinecarboxyaldehyde O-[(2-methoxy-4-methyl-3-pyridinyl)methyl]oxime]	≥ 75
